Results as given in US6884798B2, “Fungicidal agent combinations” (Bayer CropScience AG, priority 2000, dated 2005).

Tested on: Sphaerotheca pannosa
Experiment: Sphaerotheca test roses/curative
Type: in vivo, Sphaerotheca pannosa on roses
Conditions: infected roses sprayed three times at 7-day intervals; application rate 100 g/ha
Experimental: To produce a suitable preparation of active compound, a commercial formulation of active compound or active compound combination is mixed with water until the desired concentration is reached.
To test for curative activity, roses infected with Sphaerotheca pannosa are sprayed three times, at intervals of in each case 7 days, with the preparation of active compound at the stated application rate. The plants are placed in a greenhouse at temperatures between 15° C. and 23° C. and a relative atmospheric humidity of about 70%.
Evaluation is carried out 10 or 20 days after the third treatment. 0% means an efficacy which corresponds to that of the control, whereas an efficacy of 100% means that no infection is observed.

## CC(C)(C)C(O)(CCc1ccc(Cl)cc1)Cn1cncn1 (centres unmarked) [tebuconazoles, tebuconazole]
  Efficacy in % 10 days after the third treatment: 28.6%
  Efficacy in % 20 days after the third treatment: 26.6%
